Laboratory results from patent US20180221874A1, “FLUIDIC DEVICES INC[…] TISSUE AND METHODS OF USE” (President and Fellows of Harvard College, priority 2015, published 2018).
Entries after “also recorded” stand apart in the source; their conditions may differ.

System: functional muscle tissue of human cardiac tissue
Test: Cardiac field potentials of functional muscle tissue measured with flexible electrode array
Type: cell-based
Details: escalating doses of isoproterenol; cardiac field potentials detected by microelectrode array; FIG. 27, 28
Text: A cell seeding well attached to a second portion of a fluidic device including a gelatin flexible substrate with a micropatterned top surface on a COC base was used to culture a functional muscle tissue of human cardiac tissue on the flexible substrate and to separately evaluate the functional muscle tissue prior to assembling the rest of the fluidic device. FIG. 26 is an image of the cell seeding well 400 attached to the second portion 192 of the fluidic device. The top of the cell seeding well 400 was wrapped in a gas permeable membrane. […] The cultured functional muscle tissue on the flexible substrate was exposed to escalating doses of isoproterenol, a beta-adrenergic agonist, and resulting cardiac field potentials were measured using the flexible electrode array. FIG. 27 is a graph of the measured cardiac field potentials 610, 620, […], 640, 650, 660, 670 as a function of time detected by the microelectrode array for various concentrations of isoproterenol. FIG. 28 is a graph of the measured QT interval shortening as a function of the dose of isoproterenol. […] Thus, the modular nature of the fluidic device enabled the flexible substrate on the second portion of the device to be easily seeded and cultured to form the functional muscle tissue, and enabled the functional muscle tissue to be evaluated prior to assembly of the full fluidic device.

## CC(C)NCC(O)c1ccc(O)c(O)c1 (stereo not shown) [isoproterenol]
  QT interval as a function of isoproterenol dose: shortening QT interval; also recorded: QT shortening with increased doses
